Test results from PubChem BioAssay (NCI).
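Test compounds were applied to cells in 96-well plates for 48 hours at 5 doses. Here, GI50 denotes the concentration required for 50% inhibition of growth. The concentration for full growth arrest is given as TGI.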

How the values were obtained:
Test in all cases: NCI tumour cell line growth inhibition, 48 h
SR leukemia = system: SR leukemia
TK-10 renal = system: TK-10 renal
MCF7 breast = system: MCF7 breast
T-47D breast = system: T-47D breast
UACC-62 melanoma = system: UACC-62 melanoma
NCI-H460 lung = system: NCI-H460 lung
NCI/ADR-RES ovarian = system: NCI/ADR-RES ovarian
RXF 393 renal = system: RXF 393 renal
COLO 205 colon = system: COLO 205 colon
HOP-62 NSCLC = system: HOP-62 NSCLC
UACC-257 melanoma = system: UACC-257 melanoma
SN12C renal = system: SN12C renal
U251 CNS = system: U251 CNS
HCT-116 colon = system: HCT-116 colon
OVCAR-3 ovarian = system: OVCAR-3 ovarian
SK-OV-3 ovarian = system: SK-OV-3 ovarian
UO-31 renal = system: UO-31 renal
KM12 colon = system: KM12 colon
OVCAR-8 ovarian = system: OVCAR-8 ovarian
MDA-MB-435 = system: MDA-MB-435
SK-MEL-28 melanoma = system: SK-MEL-28 melanoma
RPMI-8226 leukemia = system: RPMI-8226 leukemia
HS 578T breast = system: HS 578T breast
NCI-H226 lung = system: NCI-H226 lung
BT-549 breast = system: BT-549 breast
HOP-92 NSCLC = system: HOP-92 NSCLC
OVCAR-4 ovarian = system: OVCAR-4 ovarian
HT29 colon = system: HT29 colon

Compound: COc1cccc(S(=O)(=O)NC2=NCCN2C(=S)SN2CCn3c2nsc3=S)c1
- GI50 (SR leukemia): 18 µM
- TGI (SR leukemia): 51.3 µM
- GI50 (TK-10 renal): 34.4 µM
- TGI (TK-10 renal): 81.5 µM
- GI50 (MCF7 breast): 39.4 µM
- TGI (MCF7 breast): > 100 µM
- GI50 (T-47D breast): 23.3 µM
- TGI (T-47D breast): 51 µM
- GI50 (UACC-62 melanoma): 28.6 µM
- TGI (UACC-62 melanoma): > 100 µM
- GI50 (NCI-H460 lung): 58.3 µM
- TGI (NCI-H460 lung): > 100 µM
- GI50 (NCI/ADR-RES ovarian): 52.4 µM
- TGI (NCI/ADR-RES ovarian): > 100 µM
- GI50 (RXF 393 renal): 16.8 µM
- TGI (RXF 393 renal): 46.9 µM
- GI50 (COLO 205 colon): 17.8 µM
- TGI (COLO 205 colon): 39.6 µM
- GI50 (HOP-62 NSCLC): 55.5 µM
- TGI (HOP-62 NSCLC): > 100 µM
- GI50 (UACC-257 melanoma): 31.5 µM
- TGI (UACC-257 melanoma): 86.2 µM
- GI50 (SN12C renal): 36.1 µM
- TGI (SN12C renal): > 100 µM
- GI50 (U251 CNS): 22 µM
- TGI (U251 CNS): 61.8 µM
- GI50 (HCT-116 colon): 16.4 µM
- TGI (HCT-116 colon): 33 µM
- GI50 (OVCAR-3 ovarian): 25.6 µM
- TGI (OVCAR-3 ovarian): 56.5 µM
- GI50 (SK-OV-3 ovarian): 20.4 µM
- TGI (SK-OV-3 ovarian): 99.1 µM
- GI50 (UO-31 renal): 23.3 µM
- TGI (UO-31 renal): 49.1 µM
- GI50 (KM12 colon): 30.5 µM
- TGI (KM12 colon): 80.1 µM
- GI50 (OVCAR-8 ovarian): 44.4 µM
- TGI (OVCAR-8 ovarian): > 100 µM
- GI50 (MDA-MB-435): 37.3 µM
- TGI (MDA-MB-435): > 100 µM
- GI50 (SK-MEL-28 melanoma): 31.4 µM
- TGI (SK-MEL-28 melanoma): 74.2 µM
- GI50 (RPMI-8226 leukemia): 26.1 µM
- TGI (RPMI-8226 leukemia): 97.6 µM
- GI50 (HS 578T breast): 90.3 µM
- TGI (HS 578T breast): > 100 µM
- GI50 (NCI-H226 lung): 30.9 µM
- TGI (NCI-H226 lung): > 100 µM
- GI50 (BT-549 breast): 29.9 µM
- TGI (BT-549 breast): 99.8 µM
- GI50 (HOP-92 NSCLC): 44.4 µM
- TGI (HOP-92 NSCLC): > 100 µM
- GI50 (OVCAR-4 ovarian): 34.2 µM
- TGI (OVCAR-4 ovarian): > 100 µM
- GI50 (HT29 colon): 40.2 µM
- TGI (HT29 colon): > 100 µM
